Series [1] deals with Vaccinia virus. The series can be described thus: Direct virocidal effect on Vaccinia virus, 24 h exposure, BS-C-1 plaque assay (Example 6, FIG. 5). The series is classed as cell-based. The settings on record: 50 μM, 24 h at 37° C. As for the experimental part: Direct virocidal effect of various agents on Vaccinia virus (24 h exposure) Triplicates of Vaccinia virus in a 96-well plate were incubated with agents at 50 μM final concentration for 24 h at 37° C. After incubation, virus was diluted 1000-fold and quantified in a standard 24-well BS-C-1 plaque assay.
The various agents used were as follows: BP: Benzoyl peroxide, D: Dicoumarol, DNCB: Dinitrochlorobenzene, DNFB: Dinitrofluorobenzene, K1: Vitamin K1, K2: Vitamin K2, Menadione (M is fresh, M* is Menadione kept at RT for 2 months), MBS: Menadione bisulfite and Control.

For series [2], the system named is Vaccinia virus. It is filed as cell-based.
Series [3] concerns HaCaT cells. As to the kind of experiment: Toxicity on cells, MTT assay (Example 4, FIG. 3). It is filed as cell-based, human. The following applies: 1 day exposure. As for the experimental part: Toxicity of test compounds on uninfected cell monolayers was measured using the standard tetrazolium dye MTT.
Test of various agents (BP: Benzoyl peroxide), at the indicated concentrations on triplicates of HaCaT cells in 96-well plates (FIG. 3).
Toxicity on cells (left side of panel): Cell monolayers were exposed to agents as indicated, and 1 day later, cellular viability was analysed by a standard MTT assay (control OD was between 1.15 and 1.3).

Another series relates to Vaccinia virus WR. The series is classed as cell-based.
Series [4] has as its system HaCaT cells. The following applies: 25 μM, 1 day, MTT.
A further series has as its system Molluscum contagiosum. As to the kind of experiment: Treatment of a patient with Molluscum contagiosum lesions (topical painting). The series is classed as in vivo, human. The settings on record: 50 mM in DMSO painted on lesions, one to two times per day for 5 days, after 4 weeks. The procedure:
A patient, previously treated for Molluscum contagiosum infection with curettage, had two recurrences of Molluscum contagiosum. In each instance, a number of early lesions, which where in the elbow region or the lower jaw region respectively, were treated one to two times per day for 5 consecutive days. Treatment consisted of painting the lesions with a cotton stick, applying a solution of 50 mM Menadione dissolved in DMSO to the tip of the lesion. […] Concentrations of Menadione, its analogues and additional compounds used in this invention are as indicated below: […]

`O=C(OOC(=O)c1ccccc1)c1ccccc1` [BP, Benzoyl peroxide]: the “reduction of virus infectivity (direct virocidal effect)” value in the series with Vaccinia virus [1] was determined as 43%. Moreover, the virus replication entry in the series with Vaccinia virus [2] was “inhibition of virus replication”. Besides, the cell toxicity result with HaCaT cells [3] is “dose-dependent cell toxicity”.
As to `O=c1oc2ccccc2c(O)c1Cc1c(O)c2ccccc2oc1=O` [Dicoumarol], the virus replication result in the series with Vaccinia virus [2] is reported as “inhibition of virus replication”. The cell toxicity entry in the series with HaCaT cells [3] is recorded as “dose-dependent cell toxicity”.
Regarding `CC1=CC(=O)c2ccccc2C1=O` [Menadione, 2-methyl-1,4-naphthoquinone], the virus progeny result in the series with Vaccinia virus WR is recorded as “reduced virus progeny in a dose-dependend manner”. The “effect on cell viability” value in the series with HaCaT cells [4] is below 30%. Besides, in the series with Molluscum contagiosum, the “state of the skin after treatment of Molluscum contagiosum lesions” value is “normal and without scar or discoloration”.
For `Oc1ccc(O)cc1` [Hydroquinone], in the series with Vaccinia virus [2], the virus replication entry is reported as “no effect”. The cell toxicity entry with HaCaT cells [3] is listed as “no effect”.
With `CC1(S(=O)(=O)[O-])CC(=O)c2ccccc2C1=O.[Na+]` (centres unmarked) [Menadione bisulfite], the virus progeny result with Vaccinia virus WR is listed as “reduced virus progeny in a dose-dependend manner”. Besides, in the series on Vaccinia virus [1], the “reduction of virus infectivity (direct virocidal effect)” value was 95%. In addition, the virus replication entry in the series on Vaccinia virus [2] is recorded as “inhibition of virus replication”. The cell toxicity result with HaCaT cells [3] is “dose-dependent cell toxicity”.

The values are drawn from patent publication US20130224286A1, “METHODS AND COMPOSITIONS FOR TREATING POX VIRUS INFECTIONS” (priority 2010, published 2013).
